Experimental data as given in patent publication US10322995B2, “Substituted cyano cycloalkyl penta-2,4-dienes, cyano cycloalkyl pent-2-en-4-ynes, cyano heterocyclyl penta-2,4-dienes and cyano heterocyclyl pent-2-en-4-ynes as active substances against abiotic plant stress” (BAYER CROPSCIENCE AKTIENGESELLSCHAFT, priority 2014, dated 2019).

Test system: Brassica napus (BRSNS)
Experiment: In vivo analyses Part C: drought stress, appearance vs stressed control plants in categories (BRSNS)
Parameters: key: 0: no positive effect; 10: slight positive effect; 20: clear positive effect; 30: strong positive effect
Conditions: dosage 25 g/ha, appearance vs stressed control plants after recovery phase, efficacy range of 3-4 pots
Procedure: Seeds of monocotyledonous and dicotyledonous crop plants were sown in sandy loam in plastic or wood-fibre pots, covered with soil or sand and cultivated in a greenhouse under good growth conditions. The test plants were treated at the early leaf stage (BBCH10-BBCH13). To assure uniform water supply before commencement of stress, the potted plants were supplied with water by dam irrigation prior to substance application. The inventive compounds were first formulated as wettable powders (WP) or dissolved in a solvent mixture. The further dilution was effected with water supplemented with 0.2% wetting agent (e.g. agrotin). The finished spray liquor was sprayed onto the green parts of the plant at an equivalent water application rate of 600 I/ha. Substance application was followed immediately by stress treatment of the plants. For this purpose, the wood-fibre pots were transferred in plastic inserts in order to prevent them from subsequently drying out too quickly. Drought stress was induced by gradual drying out under the following conditions: “Day”: 14 hours with illumination at 26-30° C. “Night”: 10 hours without illumination at 18-20° C. The duration of the respective stress phases was guided mainly by the condition of the stressed control plants. It was ended (by re-irrigating and transfer to a greenhouse with good growth conditions) as soon as irreversible damage was observed on the stressed control plants. The end of the stress phase was followed by an about 4-7-day recovery phase, during which the plants were once again kept under good growth conditions in a greenhouse. The duration of the recovery phase was guided mainly by when the trial plants had attained a state which enabled visual scoring of potential effects, and was therefore variable. Once this juncture had been reached, the appearance of the plants treated with test substances was recorded in comparison to the stressed control plants by the following categories: [table] For each substance and dosage, 3-4 pots were treated and evaluated. BRSNS=Brassica napus

For `COC(=O)C=C(C)C=CC(O)(C1CC1)C1(C#N)CC1` (racemic) [I.2-543], the “Effect (BRSNS)” value was 30.
